In patent US8784795B2, “Methods for determining personalized treatment compositions for prostate cancer and breast cancer” (Caldera Health Ltd., priority 2012, dated 2014):

Columns and labels:
blood cells = assay: Analysis of blood cells treated with Leukine in vivo for changes in perforin levels
Excerpt: […]

prostate cancer = conditions: patients; cited from earlier work
[1] = tested on: hormone refractory prostate cancer; conditions: clinical trial; cited from earlier work

Compound	change in perforin levels of blood cells (blood cells)	control of prostate cancer (prostate cancer)	response rate [1] [%]
Leukine®: granulocyte-macrophage colony stimulating factor (GM-CSF; also known as sargramostim; trade name Leukine®)	major increases	long-term control of prostate cancer in a substantial number of patients	
CC(=O)N1CCN(c2ccc(OCC3COC(Cn4ccnc4)(c4ccc(Cl)cc4Cl)O3)cc2)CC1 (stereo not drawn) [ketoconazole]			50
